Our source for the TGI values is PubChem BioAssay (NCI).

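A five-concentration, 48-hour dose response in 96-well plates underlies each endpoint, interpolated linearly between surrounding concentrations. TGI: concentration producing complete growth inhibition.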

Among the test systems are CAKI-1 renal; COLO 205 colon; HOP-62 NSCLC; HS 578T breast; HT29 colon; MALME-3M melanoma; MOLT-4 leukemia; NCI-H226 lung; NCI-H460 lung; NCI/ADR-RES ovarian; RPMI-8226 leukemia; SF-268 CNS; SK-MEL-28 melanoma; SN12C renal; SNB-19 CNS; SNB-75 CNS; U251 CNS; UACC-257 melanoma; UACC-62 melanoma; A498 renal.
What all share (assay): NCI anticancer screen, dose series, 48 h

For `O=[N+]([O-])c1ccc(-c2nc3ccc([N+](=O)[O-])cc3[nH]2)cc1`, the TGI was more than 100 µM in the assay on CAKI-1 renal; 28.2 µM in the assay with COLO 205 colon; 97 µM in the assay on HOP-62 NSCLC; more than 100 µM in the assay on HS 578T breast; more than 100 µM in the assay on HT29 colon; 84.2 µM in the assay on MALME-3M melanoma. The TGI in the assay on MOLT-4 leukemia was more than 100 µM; in the assay with NCI-H226 lung, more than 100 µM; in the assay on NCI-H460 lung, 65.1 µM; with NCI/ADR-RES ovarian, 57.6 µM; in the assay on RPMI-8226 leukemia, more than 100 µM; with SF-268 CNS it was more than 100 µM. Moreover, the TGI in the assay with SK-MEL-28 melanoma is more than 100 µM; in the assay with SN12C renal, more than 100 µM; in the assay on SNB-19 CNS, more than 100 µM; with SNB-75 CNS, more than 100 µM; in the assay on U251 CNS, 70.1 µM; in the assay on UACC-257 melanoma, more than 100 µM. This molecule also returned a TGI in the assay on UACC-62 melanoma of more than 100 µM.
`Cc1ccc(O)c(C(c2ccc([N+](=O)[O-])cc2)c2cc(C)ccc2O)c1`: the TGI was found to be 43 µM with A498 renal; 28.6 µM in the assay with CAKI-1 renal; 44.1 µM with COLO 205 colon; 23.1 µM in the assay on HOP-62 NSCLC; 24 µM in the assay on HS 578T breast; 30 µM in the assay on HT29 colon. Further, the TGI in the assay on MOLT-4 leukemia came to 26.3 µM; in the assay with NCI-H226 lung it was 39.9 µM; in the assay with NCI/ADR-RES ovarian, 28.7 µM; in the assay with RPMI-8226 leukemia, 29.8 µM; with SF-268 CNS, 22 µM; with SK-MEL-28 melanoma, 38.4 µM. Further, the TGI came out at 27.3 µM in the assay with SN12C renal; 26.2 µM in the assay with SNB-19 CNS; 15.5 µM in the assay on SNB-75 CNS; 48.8 µM in the assay on U251 CNS; 28.4 µM in the assay with UACC-257 melanoma; 21.7 µM in the assay on UACC-62 melanoma.
As to `C/C(=C\c1ccccc1)C(=O)NCc1ccc(C(=O)NCCC(C)C)cc1`, the TGI with A498 renal is more than 100 µM; in the assay with CAKI-1 renal, more than 100 µM; with COLO 205 colon, more than 100 µM; in the assay on HOP-62 NSCLC, 48 µM; in the assay on HT29 colon, more than 100 µM; in the assay with MALME-3M melanoma, more than 100 µM. The TGI with MOLT-4 leukemia, in the assay with NCI-H226 lung, with NCI-H460 lung, in the assay with NCI/ADR-RES ovarian, in the assay with RPMI-8226 leukemia and with SF-268 CNS was more than 100 µM in each case. Also, the TGI in the assay with SK-MEL-28 melanoma is more than 100 µM; with SN12C renal, more than 100 µM; in the assay on SNB-19 CNS it was more than 100 µM; with SNB-75 CNS, 89.4 µM; in the assay with U251 CNS, more than 100 µM; in the assay with UACC-257 melanoma, more than 100 µM. The TGI in the assay with UACC-62 melanoma is more than 100 µM.
`CCOc1ccc(Nc2nc3c(s2)C(=O)c2ccccc2C3=O)cc1`: the TGI was 29.7 µM in the assay on A498 renal; 20.7 µM in the assay with CAKI-1 renal; 46 µM in the assay on COLO 205 colon; 32 µM in the assay with HOP-62 NSCLC; more than 100 µM in the assay with HS 578T breast; 8.19 µM in the assay on MALME-3M melanoma. Besides, the TGI was more than 100 µM in the assay with MOLT-4 leukemia; 38.9 µM in the assay on NCI-H460 lung; more than 100 µM with RPMI-8226 leukemia; 16.7 µM in the assay with SF-268 CNS; 36.1 µM with SK-MEL-28 melanoma; 13.5 µM in the assay with SN12C renal. Also, the TGI in the assay with SNB-19 CNS was determined as 30.1 µM; with SNB-75 CNS, 24 µM; in the assay on U251 CNS, 20.7 µM; in the assay on UACC-257 melanoma, 27.4 µM; with UACC-62 melanoma, 5.13 µM.
For the molecule `Cc1ccc(S(=O)(=O)n2c3c(c4ccccc42)CCN2C(=O)C(S(=O)(=O)c4ccccc4)=CCC32)cc1` (configuration not stated), the TGI with A498 renal came to 0.582 µM; in the assay on CAKI-1 renal it was 0.872 µM; in the assay on COLO 205 colon it was 0.458 µM; in the assay on HOP-62 NSCLC it was 0.562 µM; with HS 578T breast, 9.15 µM; in the assay with HT29 colon, 0.48 µM. Further, the TGI with MALME-3M melanoma turned out to be 0.463 µM; with NCI-H460 lung it was 1.51 µM; in the assay with RPMI-8226 leukemia it was 0.749 µM; with SK-MEL-28 melanoma, 0.353 µM; in the assay on SN12C renal, 0.434 µM; with SNB-19 CNS, 1.91 µM. Further, the TGI with SNB-75 CNS was 1.41 µM; with U251 CNS it was 0.404 µM; with UACC-257 melanoma, 0.319 µM; in the assay with UACC-62 melanoma it was 0.622 µM.
`O=C1Cc2c([nH]c3c(Cl)cccc23)-c2ccccc2N1`: the TGI with A498 renal, in the assay with COLO 205 colon, with HOP-62 NSCLC, with HS 578T breast, with HT29 colon and in the assay on MALME-3M melanoma was more than 100 µM in each case. The TGI in the assay with MOLT-4 leukemia, with NCI-H226 lung, in the assay on NCI-H460 lung, with RPMI-8226 leukemia, with SF-268 CNS and with SK-MEL-28 melanoma was more than 100 µM each time. Moreover, the TGI in the assay with SN12C renal, in the assay with SNB-19 CNS, in the assay with SNB-75 CNS, with U251 CNS and with UACC-62 melanoma was more than 100 µM throughout.
Take `O=C1CCCC2C(O)CCC[C@H]12` (some centres not stated): the TGI in the assay with CAKI-1 renal, with COLO 205 colon, in the assay with HOP-62 NSCLC, with HS 578T breast, in the assay with HT29 colon and in the assay with MALME-3M melanoma was more than 100 µM throughout. Also, the TGI in the assay with MOLT-4 leukemia, in the assay on NCI-H226 lung, in the assay on NCI-H460 lung, in the assay with NCI/ADR-RES ovarian, in the assay with SF-268 CNS and in the assay with SK-MEL-28 melanoma was more than 100 µM in each case. Also, the TGI in the assay on SN12C renal, in the assay on SNB-19 CNS, in the assay with SNB-75 CNS, with U251 CNS, in the assay on UACC-257 melanoma and in the assay with UACC-62 melanoma was more than 100 µM throughout.
With `Cn1c(-c2cccs2)cc(-c2ccccc2)c1-c1cccs1`, the TGI was more than 100 µM with A498 renal; more than 100 µM with CAKI-1 renal; more than 100 µM in the assay on COLO 205 colon; 51.5 µM in the assay with HOP-62 NSCLC; more than 100 µM in the assay on HS 578T breast; more than 100 µM with HT29 colon. Moreover, the TGI with MOLT-4 leukemia, with NCI-H226 lung, in the assay on NCI-H460 lung, in the assay with NCI/ADR-RES ovarian, with RPMI-8226 leukemia and with SF-268 CNS was more than 100 µM throughout. The TGI with SK-MEL-28 melanoma was more than 100 µM; in the assay on SN12C renal, more than 100 µM; in the assay with SNB-19 CNS, 47.5 µM; with SNB-75 CNS, more than 100 µM; with U251 CNS, more than 100 µM; in the assay with UACC-257 melanoma, more than 100 µM. In addition, the TGI in the assay on UACC-62 melanoma was more than 100 µM.
Consider `O=C1NC(=O)C(CC(C(=O)C(=O)Nc2ccccc2Cl)C(=O)c2ccc3ccccc3c2)C(=O)N1` (configuration not stated), for which the TGI in the assay with CAKI-1 renal, in the assay with COLO 205 colon, in the assay with HOP-62 NSCLC, in the assay on HS 578T breast, in the assay on HT29 colon and with MOLT-4 leukemia was more than 100 µM throughout. Besides, the TGI with NCI-H226 lung, in the assay on NCI-H460 lung, in the assay with NCI/ADR-RES ovarian, in the assay on SF-268 CNS, in the assay with SK-MEL-28 melanoma and in the assay on SN12C renal was more than 100 µM in each case. The TGI with SNB-19 CNS, in the assay with SNB-75 CNS, with U251 CNS, in the assay on UACC-257 melanoma and with UACC-62 melanoma was more than 100 µM each time.
As for `COC(=O)C(C)(C)OCc1ccc(C2NC(=O)N(c3cccc(Cl)c3)C(=O)N2c2cccc(Cl)c2)cc1` (configuration not stated), the TGI in the assay with CAKI-1 renal was more than 100 µM; in the assay with COLO 205 colon it was more than 100 µM; with HOP-62 NSCLC it was more than 100 µM; with HS 578T breast it was 44.4 µM; in the assay on HT29 colon, more than 100 µM; in the assay on MOLT-4 leukemia, more than 100 µM. Moreover, the TGI with NCI-H460 lung, in the assay with NCI/ADR-RES ovarian, in the assay on RPMI-8226 leukemia, in the assay with SF-268 CNS, in the assay with SK-MEL-28 melanoma and in the assay with SN12C renal was more than 100 µM each time. In addition, the TGI was more than 100 µM in the assay with SNB-19 CNS; 6.95 µM in the assay on SNB-75 CNS; more than 100 µM in the assay on U251 CNS; more than 100 µM in the assay with UACC-257 melanoma; more than 100 µM in the assay with UACC-62 melanoma.
For `CCOC(O)(NC(=O)C(C(F)(F)F)C(F)(F)F)C(F)(F)F` (configuration not stated), the TGI with A498 renal, in the assay with COLO 205 colon, in the assay on HS 578T breast, in the assay on HT29 colon, in the assay with MOLT-4 leukemia and in the assay with NCI/ADR-RES ovarian was more than 100 µM throughout. Also, the TGI with RPMI-8226 leukemia, with SF-268 CNS, in the assay on SK-MEL-28 melanoma, in the assay on SN12C renal, in the assay with SNB-19 CNS and with SNB-75 CNS was more than 100 µM in each case. In addition, the TGI in the assay on U251 CNS and in the assay with UACC-257 melanoma was more than 100 µM throughout.
On to `c1ccc2c(c1)Nc1ccccc1[P+]21c2ccccc2Nc2ccccc21`, for which the TGI with A498 renal came to 2.93 µM; with CAKI-1 renal, 11.2 µM; in the assay on COLO 205 colon, 0.202 µM; in the assay with HOP-62 NSCLC, 1.58 µM; in the assay on HS 578T breast it was 1.36 µM; in the assay with HT29 colon, 2.9 µM. For the same molecule, the TGI in the assay with MOLT-4 leukemia is 1.11 µM; in the assay on NCI-H226 lung, 0.66 µM; with NCI-H460 lung, 2.81 µM; with NCI/ADR-RES ovarian it was more than 100 µM; in the assay on SF-268 CNS, 6.63 µM; with SK-MEL-28 melanoma it was 1.65 µM. Besides, the TGI in the assay on SN12C renal was 0.631 µM; with SNB-19 CNS it was 1.09 µM; in the assay with SNB-75 CNS, 0.332 µM; in the assay with U251 CNS, 1.4 µM.
